Data on three molecules can be found in patent publication US20120156307A1, “MEDICAL USES OF NANOCLUSTERED WATER” (priority 2010, published 2012).

Read-outs that look alike come from different tables or passages of the source.

Data set [1] has as its system peripheral blood mononuclear cells (PBMC). The experiment in a line: In vitro inhibition of PBMC proliferation. In kind it is cell-based.
Data set [2] concerns in vitro reconstituted human 3D skin with a corneum layer. The experiment in a line: Keratolytic effect, MTT assay on reconstituted human 3D skin. The class given is cell-based. The method, then:
The assay was carried out on a three-dimensional reconstituted human skin model, composed of human epidermal keratinocytes that have been proliferating and differentiating in vitro in peculiar conditions in order to build up a well-differentiated stratum corneum. […] When the damage of the corneum layer is stronger, as it happens with keratolytic agents, the cytotoxic effects of the germinative layer are faster to develop. […] Thirty μL of each substance have been applied to the cell culture and incubation at 37° C. was performed for 15 and 120 minutes respectively.

Data set [3] has the same test system. The following applies: 1% SLS, 10% Glycolic acid, cited from earlier work.

In general, inhibition refers to the relative decrease from the control value, in per cent. Lower therefore signals little suppression. In the case of `C[C@H]1C[C@H]2[C@@H]3CCC4=CC(=O)C=C[C@]4(C)[C@@]3(F)[C@@H](O)C[C@]2(C)[C@@]1(O)C(=O)CO` [Betamethasone, betamethasone], the inhibition at 0.01 µM amounted to 87.7% in data set [1] (Batch 1, 10 nM); 85.7% in data set [1] (Batch 2, 10 nM); 79.4% in data set [1] (Batch 3, 10 nM); 88.5% in data set [1] (Batch 4, 10 nM); 85.3% in data set [1] (Mean, 10 nM).
On to `CCCCCCCCCCCCOS(=O)(=O)[O-].[Na+]` [SLS], for which the “cell death (cytotoxic effect)” value in data set [2] (after 2 hours, 1% SLS) was 27.69%. Moreover, the “cell death, as generally stated for the reference agents” value in data set [3] (after 15') is given as “does not cause any cell death”; in data set [3] (after 2 h), “about 30%”.
As to `O=C(O)CO` [glycolic acid], in data set [2] (at 15', 10% glycolic acid), the cell death is 45.86%. Also, the “cell death, as generally stated for the reference agents” value is recorded as 50% in data set [3] (after 15') and 90% in data set [3] (after 2 h).
